The record followed here is patent US10258603B2 (priority 2014, dated 2019).

T1 sequence (Q9BXF3 424-538 limits assumed): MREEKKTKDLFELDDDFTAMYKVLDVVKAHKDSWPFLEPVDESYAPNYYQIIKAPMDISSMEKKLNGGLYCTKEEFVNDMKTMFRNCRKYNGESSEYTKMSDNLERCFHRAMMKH

The first assay addresses T1, CECR2 (Homo sapiens, UniProt Q9BXF3).
T1 construct: 424-538 was cloned, expressed, and purified to homogeneity; Flag; made in house
Briefly: CECR2 TR-FRET Binding Assay. As to conditions: IC50 (uM). An excerpt:
IC50 Measurements for Inhibitors Using CECR2 TR-FRET Binding Assay
For orientation: TR-FRET usually uses a lanthanide donor and a delayed reading to cut background.
Usually IC50 stands for the concentration that inhibits the measured activity by half. For the compound `C=CCn1cc(C(=O)N(C)C2CCN(c3cc(C(F)(F)F)ncn3)CC2)c2cc[nH]c2c1=O` [Example 164, 6-allyl-N-methyl-7-oxo-N-[1-[6-(trifluoromethyl)pyrimidin-4-yl]-4-piperidyl]-1H-pyrrolo[2,3-c]pyridine-4-carboxamide], the IC50 amounted to 0.21 µM.
The same measure, in the same setting: the value for `C=CCn1cc(C(=O)N(C)C2CCN(c3cc(C)nc(C)n3)CC2)c2cc[nH]c2c1=O` [Example 165, 6-allyl-N-[1-(2,6-dimethylpyrimidin-4-yl)-4-piperidyl]-N-methyl-7-oxo-1H-pyrrolo[2,3-c]pyridine-4-carboxamide] was 0.087 µM.
`C=CCn1cc(C(=O)N(C)C2CCN(c3cc(OC)ncn3)CC2)c2cc[nH]c2c1=O` [Example 162, 6-allyl-N-[1-(6-methoxypyrimidin-4-yl)-4-piperidyl]-N-methyl-7-oxo-1H-pyrrolo[2,3-c]pyridine-4-carboxamide] had an IC50 of 0.12 µM.

The assay is the same for the next values; noted with them: read-out: IC50.
In the case of `CC(C)CN1CCC(N(C)C(=O)c2cn(C)c(=O)c3[nH]ccc23)CC1` [Example 207, N-(1-isobutyl-4-piperidyl)-N,6-dimethyl-7-oxo-1H-pyrrolo[2,3-c]pyridine-4-carboxamide], the IC50 turned out to be 0.81 µM.
Same read-out and setting: the value for `C=CCn1cc(C(=O)N(C)[C@H]2[C@@H]3CN(c4ccnc(C#N)n4)C[C@@H]32)c2cc[nH]c2c1=O` [Example 249, 6-allyl-N-[(1S,5R)-3-(2-cyanopyrimidin-4-yl)-3-azabicyclo[3.1.0]hexan-6-yl]-N-methyl-7-oxo-1H-pyrrolo[2,3-c]pyridine-4-carboxamide] was 4.8 µM; that for `C=CCn1cc(C(=O)N(C)C2CCCc3ccccc32)c2cc(C)[nH]c2c1=O` (centres unmarked) [Example 275, 6-allyl-N,2-dimethyl-7-oxo-N-tetralin-1-yl-1H-pyrrolo[2,3-c]pyridine-4-carboxamide] was 0.11 µM; that for `CN(C(=O)c1cn(C)c(=O)c2[nH]ccc12)C1CCN(Cc2ccccc2F)CC1` [Example 216] was 1.2 µM.
Still for that read-out and setting: the figure for `C=CCn1cc(C(=O)N2CCN(c3ccc(F)cc3)CC2C(N)=O)c2cc(C)[nH]c2c1=O` (single isomer, unassigned) [Example 274, 1-(6-allyl-2-methyl-7-oxo-6,7-dihydro-1H-pyrrolo[2,3-c]pyridine-4-carbonyl)-4-(4-fluorophenyl)piperazine-2-carboxamide] is 0.074 µM; for `CN1CCC(C)(CNC(=O)c2cn(C)c(=O)c3[nH]ccc23)CC1` [Example 211, N-[(1,4-dimethyl-4-piperidyl)methyl]-6-methyl-7-oxo-1H-pyrrolo[2,3-c]pyridine-4-carboxamide] it is 2.2 µM; for `CC(C)N1CC[C@@H](NC(=O)c2cn(C)c(=O)c3[nH]ccc23)[C@H](C)C1` (relative stereo) [Example 239] it is 2.3 µM.
On the same count and under the same terms, the figure for `COc1ccc(CN2CCC(N(C)C(=O)c3cn(C)c(=O)c4[nH]ccc34)CC2)cc1` [Example 221] is 0.67 µM; for `Cn1cc(C(=O)N2CCC(N3CCCC3)CC2)c2cc[nH]c2c1=O` [Example 77, 6-methyl-4-(4-pyrrolidin-1-ylpiperidine-1-carbonyl)-1H-pyrrolo[2,3-c]pyridin-7-one] it is 2.7 µM; for `C=CCn1cc(C(=O)N(C)C2CCN(c3cc(-c4ccccc4Cl)ncn3)CC2)c2cc(C)[nH]c2c1=O` [Example 270] it is 0.018 µM.
Turning to `CCN(C(=O)c1cn(C)c(=O)c2[nH]ccc12)C1CCN(C(C)C)CC1` [Example 227], the IC50 is 2 µM.
On the same count and under the same terms, the value for `C=CCn1cc(C(=O)N(C)C2CCN(c3cc(-c4ncccc4C)ncn3)CC2)c2cc(C)[nH]c2c1=O` [Example 272] was 0.035 µM; that for `Cn1cc(C(=O)N2CCC(CO)CC2)c2cc[nH]c2c1=O` [Example 75, 4-[4-(hydroxymethyl)piperidine-1-carbonyl]-6-methyl-1H-pyrrolo[2,3-c]pyridin-7-one] was 4.8 µM.
Same read-out and setting: the figure for `C=CCn1cc(C(=O)N(C)C2CCCc3ccncc32)c2cc(C)[nH]c2c1=O` (single isomer, unassigned) [Example 291] is 0.14 µM; for `C=CCn1cc(C(=O)N(C)C2CCN(c3cc(C4CC4)nc(C)n3)CC2)c2cc(C)[nH]c2c1=O` [Example 266] it is 0.03 µM.
On to `Cc1cccc(CN2CCC(CN(C)C(=O)c3cn(C)c(=O)c4[nH]ccc34)CC2)c1` [Example 204], for which the IC50 turned out to be 1.1 µM.
The same measure, in the same setting: the value for `CN(C(=O)c1cn(C)c(=O)c2[nH]ccc12)C1CCN(c2ccccc2)CC1` [Example 172, N,6-dimethyl-7-oxo-N-(1-phenyl-4-piperidyl)-1H-pyrrolo[2,3-c]pyridine-4-carboxamide] was 1 µM; that for `CC1CCCCN1CCCNC(=O)c1cn(C)c(=O)c2[nH]ccc12` (centres unmarked) [Example 29, 6-methyl-N-[3-(2-methyl-1-piperidyl)propyl]-7-oxo-1H-pyrrolo[2,3-c]pyridine-4-carboxamide] was 1.8 µM; that for `CC(C)N1CCCC(NC(=O)c2cn(C)c(=O)c3[nH]ccc23)CC1` (centres unmarked) [Example 241] was 1.1 µM.
For `CN(C(=O)c1cn(C)c(=O)c2[nH]ccc12)C1CCN(c2cccc(C(F)(F)F)c2)CC1` [Example 174, N,6-dimethyl-7-oxo-N-[1-[3-(trifluoromethyl)phenyl]-4-piperidyl]-1H-pyrrolo[2,3-c]pyridine-4-carboxamide], the IC50 turned out to be 0.59 µM.
On the same count and under the same terms, the value for `Cn1cc(C(=O)N2CCC(N3CCCCC3)CC2)c2cc[nH]c2c1=O` [Example 59, 6-methyl-4-[4-(1-piperidyl)piperidine-1-carbonyl]-1H-pyrrolo[2,3-c]pyridin-7-one] was 0.89 µM.
The same measure, in the same setting: the value for `CC(C)N1CCC(C)(CNC(=O)c2cn(C)c(=O)c3[nH]ccc23)CC1` [Example 212, N-[(1-isopropyl-4-methyl-4-piperidyl)methyl]-6-methyl-7-oxo-1H-pyrrolo[2,3-c]pyridine-4-carboxamide] was 1.7 µM.
Same read-out and setting: the figure for `C=CCn1cc(C(=O)N(C)C2CCCc3ccc(C)cc32)c2cc(C)[nH]c2c1=O` (single isomer, unassigned) [Example 287] is 0.084 µM; for `CN(C(=O)c1cn(C)c(=O)c2[nH]ccc12)C1CCN(CCc2ccc(Cl)cc2)CC1` [Example 254] it is 0.7 µM; for `CC(CN(C)C)NC(=O)c1cn(C)c(=O)c2[nH]ccc12` (centres unmarked) [Example 2, N-[2-(dimethylamino)-1-methyl-ethyl]-6-methyl-7-oxo-1H-pyrrolo[2,3-c]pyridine-4-carboxamide] it is 14 µM.
With `CN(CC1CCN(C2CCCC2)CC1)C(=O)c1cn(C)c(=O)c2[nH]ccc12` [Example 205], the IC50 turned out to be 0.71 µM.
Same read-out and setting: the figure for `CN(C(=O)c1cn(C)c(=O)c2[nH]ccc12)C1CCN(c2cccnn2)CC1` [Example 145, N,6-dimethyl-7-oxo-N-(1-pyridazin-3-yl-4-piperidyl)-1H-pyrrolo[2,3-c]pyridine-4-carboxamide] is 0.41 µM; for `COCC1CCN(C(=O)c2cn(C)c(=O)c3[nH]ccc23)CC1` [Example 72, 4-[4-(methoxymethyl)piperidine-1-carbonyl]-6-methyl-1H-pyrrolo[2,3-c]pyridin-7-one] it is 2.2 µM.
On the same count and under the same terms, the value for `CN(CC1CCN(CC2CCOCC2)CC1)C(=O)c1cn(C)c(=O)c2[nH]ccc12` [Example 234] was 1 µM.
